Measured values: patent US20250084091A1, “INHIBITORS OF SARS-COV-2” (The Texas A&M University System, priority 2021, published 2025)
Values after ≈ are worked out from the molar mass of the structure shown. Where two headings read alike, the source gives them in different places.

Tests used:
[1] = target: SARS-CoV-2 main protease (Mpro) (Severe acute respiratory syndrome coronavirus 2, UniProt P0DTD1); experiment: biochemical
[2] = Uninfected host cell cytotoxicity counter screen; format: cell-based; settings: human
Method in brief: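 HeLa-ACE2 cells, uninfected, seeded at 400 cells/well with compounds and held 24 hours at 37° C., 5% CO2. Dead cells stained with Image-iT DEAD green, fixed in 4% paraformaldehyde, DAPI-counterstained and imaged. Data normalized to DMSO and 40 μM puromycin controls; concentration responses in triplicate.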

CoV-2 in Vero cells = experiment: CoV-2 Vero antiviral assay; format: cell-based, SARS-CoV-2; settings: Severe acute respiratory syndrome coronavirus 2, Vero, read-out: CoV-2 Vero EC50/100
HeLa-ACE2 cells = experiment: cells; format: cell-based; settings: Table 2, total cell count in infected plates
[3] = system: SARS-CoV-2 (strain USA-WA1/2020); experiment: microbe, parasite or virus in culture; format: cell-based; settings: SARS-CoV-2 infected HeLa-ACE2 cells
[4] = Severe acute respiratory syndrome coronavirus 2, Table 2, read-out: CoV-2 HeLa EC50

SMILES | IC50 ([1]; Table 2, read-out: Enzyme IC50) [nM] | CC50 at 24 h [2] [nM] | EC50 (CoV-2 in Vero cells) [µg/mL] | EC50 (HeLa-ACE2 cells) [nM] | EC50 [3, 4] [nM] | IC50 ([1]; Enzyme IC50, Table 2) [nM] | CC50 at 24 h ([2]; Table 2, uninfected cells, 24 hours, read-out: Uninfected HeLa-ACE2 CC50) [nM] | EC50 ([3]; Severe acute respiratory syndrome coronavirus 2, HeLa-ACE2, read-out: CoV-2 HeLa EC50, Table 2) [nM]
O=C(c1cncc(Br)c1)N1CCN(C(c2ccccc2)c2ccccc2)CC1 [AA-551, (4-benzhydrylpiperazin-1-yl)(5-bromopyridin-3-yl)methanone] | 220 | > 39800 | 2.5 (≈ 5.73 µM) | > 9610 | 820 | – | – | –
Cc1cncc(C(=O)N2CCN(C(c3ccccc3)c3ccccc3)CC2)c1 [AA-596, (4-benzhydrylpiperazin-1-yl)(5-methylpyridin-3-yl)methanone] | 130 | > 39800 | 2.5 (≈ 6.73 µM) | > 9610 | 360 | – | – | –
Cc1cncc(C(=O)N2CC3CCC(C2)N3C(c2ccccc2)c2ccccc2)c1 [AA-604, (8-benzhydryl-3,8-diazabicyclo[3.2.1]octan-3-yl)(5-methylpyridin-3-yl)methanone] | – | – | 5 (≈ 12.6 µM) | > 9610 | – | 81 | > 39800 | 240
Cc1cncc(C(=O)N2CCN(C(c3ccccc3)c3cccnc3)CC2)c1 (stereo not shown) [MKP-1217, 1-(5-methylpyridine-3-carbonyl)-4-[phenyl(pyridin-3-yl)methyl]piperazine] | 320 | > 39800 | 10 (≈ 26.8 µM) | 1310 | 475 | – | – | –
Cc1cncc(C(=O)N2CCN(C(c3ccccc3)c3cccc(F)c3)CC2)c1 (stereo not shown) [MKP-1225, 1-[(3-fluorophenyl)(phenyl)methyl]-4-(5-methylpyridine-3-carbonyl)piperazine] | 38 | > 39800 | 2.5 (≈ 6.42 µM) | 481 | 210 | – | – | –
Cc1cncc(C(=O)N2CCN(C(c3cccc(F)c3)c3cccc(F)c3)CC2)c1 [MKP-1268, 1-[bis(3-fluorophenyl)methyl]-4-(5-methylpyridine-3-carbonyl)piperazine] | 36 | > 39800 | 2.5 (≈ 6.14 µM) | 143 | 111 | – | – | –
Cc1cncc(C(=O)N2CCN(C(c3ccccc3)c3cccc(Cl)c3)CC2)c1 (stereo not shown) [MKP-1272, 1-[(3-chlorophenyl)(phenyl)methyl]-4-(5-methylpyridine-3-carbonyl)piperazine] | 365 | 33600 | 10 (≈ 24.6 µM) | 117 | 246 | – | – | –
O=C(c1cncc(Br)c1)N1CCC(=C(c2ccccc2)c2ccccc2)CC1 [NZ-771, 3-bromo-5-[4-(diphenylmethylidene)piperidine-1-carbonyl]pyridine] | 250 | > 39800 | 20 (≈ 46.2 µM) | > 9610 | 940 | – | – | –
O=C(c1cncc(Br)c1)N1CCN(C2c3ccccc3C=Cc3ccccc32)CC1 [NZ-773, (5-bromo-3-pyridyl)-[4-(2-tricyclo[9.4.0.03,8]pentadeca-1(11),3(8),4,6,9,12,14-heptaenyl)piperazin-1-yl]methanone] | 100 | > 39800 | 20 (≈ 43.4 µM) | > 9610 | 700 | – | – | –
O=C(c1cncc(Br)c1)N1CCN(C2c3ccccc3CSc3ccccc32)CC1 (stereo not shown) [NZ-774, (5-bromo-3-pyridyl)-[4-(6,11-dihydrobenzo[c][1]benzothiepin-11-yl)piperazin-1-yl]methanone] | 130 | > 39800 | 5 (≈ 10.4 µM) | > 9610 | 630 | – | – | –
O=C(c1cncc(Br)c1)N1CCN(C2c3ccccc3COc3ccccc32)CC1 (stereo not shown) [NZ-776, (5-bromo-3-pyridyl)-[4-(6,11-dihydrobenzo[c][1]benzoxepin-11-yl)piperazin-1-yl]methanone] | 140 | > 39800 | 2.5 (≈ 5.38 µM) | > 9610 | 480 | – | – | –
Cc1cncc(C(=O)N2CCC(C(O)(c3ccccc3)c3ccccc3)CC2)c1 [NZ-782, [1-(5-methylpyridine-3-carbonyl)piperidin-4-yl]diphenylmethanol] | 230 | > 39800 | 5 (≈ 12.9 µM) | > 9610 | 570 | – | – | –
Cc1cncc(C(=O)N2CCC(=C(c3ccccc3)c3ccccc3)CC2)c1 [NZ-783, 3-[4-(diphenylmethylidene)piperidine-1-carbonyl]-5-methylpyridine] | 85 | 25600 | 10 (≈ 27.1 µM) | > 9610 | 570 | – | – | –
Cc1cncc(C(=O)N2CCC(C(c3ccccc3)c3ccccc3)CC2)c1 [NZ-786, 3-[4-(diphenylmethyl)piperidine-1-carbonyl]-5-methylpyridine] | 170 | 28500 | 10 (≈ 27 µM) | > 9610 | 570 | – | – | –
Cc1cncc(C(=O)N2CCC(=C3c4ccccc4C=Cc4ccccc43)CC2)c1 [NZ-793, (5-methyl-3-pyridyl)-[4-(2-tricyclo[9.4.0.03,8]pentadeca-1(11),3(8),4,6,9,12,14-heptaenylidene)-1-piperidyl]methanone] | 120 | 33100 | 5 (≈ 12.7 µM) | 520 | 527 | – | – | –
Cc1cncc(C(=O)N2CCC(=C3c4ccccc4CSc4ccccc43)CC2)c1 [NZ-794, [4-(6H-benzo[c][1]benzothiepin-11-ylidene)-1-piperidyl]-(5-methyl-3-pyridyl)methanone] | 60 | 39200 | 2.5 (≈ 6.06 µM) | 345 | 155 | – | – | –
O=C(c1cncc(Br)c1)N1CCN(C2c3ccccc3CCc3ccccc32)CC1 [ZS-316, (5-bromo-3-pyridyl)-[4-(2-tricyclo[9.4.0.03,8]pentadeca-1(11),3(8),4,6,12,14-hexaenyl)piperazin-1-yl]methanone] | 140 | > 39800 | 2.5 (≈ 5.41 µM) | > 9610 | 700 | – | – | –
Cc1cncc(C(=O)N2CCN(C3c4ccccc4CCc4ccccc43)CC2)c1 [ZS-329, (5-methyl-3-pyridyl)-[4-(2-tricyclo[9.4.0.03,8]pentadeca-1(11),3(8),4,6,12,14-hexaenyl)piperazin-1-yl]methanone] | 89 | 21300 | 5 (≈ 12.6 µM) | > 9610 | 330 | – | – | –
Cc1cncc(C(=O)N2CCC(=C3c4ccccc4CCc4ccccc43)CC2)c1 [ZS-336, (5-methyl-3-pyridyl)-[4-(2-tricyclo[9.4.0.03,8]pentadeca-1(11),3(8),4,6,12,14-hexaenylidene)-1-piperidyl]methanone] | 54 | 31500 | 2.5 (≈ 6.34 µM) | 314 | 252 | – | – | –
Nc1cncc(C(=O)N2CCN(C3c4ccccc4CCc4ccccc43)CC2)c1 [ZS-342, (5-amino-3-pyridyl)-[4-(2-tricyclo[9.4.0.03,8]pentadeca-1(11),3(8),4,6,12,14-hexaenyl)piperazin-1-yl]methanone] | 150 | > 39800 | 5 (≈ 12.5 µM) | 1180 | 406 | – | – | –
Cc1c(Br)cncc1C(=O)N1CCN(C2c3ccccc3CCc3ccccc32)CC1 [ZS-346, (5-bromo-4-methyl-3-pyridyl)-[4-(2-tricyclo[9.4.0.03,8]pentadeca-1(11),3(8),4,6,12,14-hexaenyl)piperazin-1-yl]methanone] | 270 | > 39800 | – | 2040 | 1070 | – | – | –
NC(=O)c1cncc(C(=O)N2CCN(C3c4ccccc4CCc4ccccc43)CC2)c1 [ZS-347, 5-[4-(2-tricyclo[9.4.0.03,8]pentadeca-1(11),3(8),4,6,12,14-hexaenyl)piperazine-1-carbonyl]pyridine-3-carboxamide] | 1700 | > 39800 | – | > 9610 | 4250 | – | – | –
Cc1cncc(C(=O)N2CCN(C3c4ccccc4NC(=O)c4ccccc43)CC2)c1 (stereo not shown) [ZS-355, 11-[4-(5-methylpyridine-3-carbonyl)piperazin-1-yl]-5,11-dihydrobenzo[c][1]benzazepin-6-one] | 53 | > 39800 | 20 (≈ 48.5 µM) | 377 | 223 | – | – | –
CC(=O)Nc1cncc(C(=O)N2CCN(C3c4ccccc4CCc4ccccc43)CC2)c1 [ZS-361, N-[5-[4-(2-tricyclo[9.4.0.03,8]pentadeca-1(11),3(8),4,6,12,14-hexaenyl)piperazine-1-carbonyl]-3-pyridyl]acetamide] | 44 | 34200 | 20 (≈ 45.4 µM) | 4320 | 1180 | – | – | –
